# Measurements reported in the supplement of paper PMC10307832.
# Columns and labels:
# Assay in all cases: relative viability (nuclei count vs DMSO), 5 days (fraction); higher = more cells survive
# Calu-6 = test system: Calu-6
# How it was run: (§1)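 Dosing by pin tool came one day after lung cancer cell lines were seeded in 1536-well plates, using either one drug or a fixed anchor-drug dose plus five library-drug doses (not always all listed) in √10 steps. After 5 days, nuclei were counted on 4× images. Relative viability is treated-well nuclei count divided by vehicle-well nuclei count, and values are medians of duplicate plates.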
# IA-LM = test system: IA-LM
# How it was run: as §1
# NCI-H1703 = test system: NCI-H1703
# How it was run: as §1
# EBC-1 = test system: EBC-1
# How it was run: as §1
# NCI-H1563 = test system: NCI-H1563
# How it was run: as §1
# NCI-H1299 = test system: NCI-H1299
# How it was run: as §1
# A549 = test system: A549
# How it was run: as §1
smiles,measurement,setting,value
O=c1[nH]c2ccccc2n1C1CCN(CCCC(c2ccc(F)cc2)c2ccc(F)cc2)CC1 [Pimozide] + CS(=O)(=O)CCNCc1ccc(-c2ccc3ncnc(Nc4ccc(OCc5cccc(F)c5)c(Cl)c4)c3c2)o1 [Lapatinib] (partner 2 µM),relative viability,Calu-6; first compound 0.08 µM,1.08
same,relative viability,Calu-6; first compound 0.253 µM,1.07
same,relative viability,Calu-6; first compound 0.8 µM,1.02
same,relative viability,Calu-6; first compound 2.53 µM,1.02
same,relative viability,Calu-6; first compound 8 µM,0.933
same,relative viability,IA-LM; first compound 0.08 µM,0.888
same,relative viability,IA-LM; first compound 0.253 µM,0.987
same,relative viability,IA-LM; first compound 0.8 µM,0.64
same,relative viability,IA-LM; first compound 2.53 µM,0.761
same,relative viability,IA-LM; first compound 8 µM,0.893
same,relative viability,NCI-H1703; first compound 0.08 µM,1.02
same,relative viability,NCI-H1703; first compound 0.253 µM,0.944
same,relative viability,NCI-H1703; first compound 0.8 µM,0.763
same,relative viability,NCI-H1703; first compound 2.53 µM,0.958
same,relative viability,NCI-H1703; first compound 8 µM,0.865
same,relative viability,EBC-1; first compound 0.08 µM,0.208
same,relative viability,EBC-1; first compound 0.253 µM,0.213
same,relative viability,EBC-1; first compound 0.8 µM,0.192
same,relative viability,EBC-1; first compound 2.53 µM,0.223
same,relative viability,EBC-1; first compound 8 µM,0.162
same,relative viability,NCI-H1563; first compound 0.08 µM,0.955
same,relative viability,NCI-H1563; first compound 0.253 µM,0.829
same,relative viability,NCI-H1563; first compound 0.8 µM,0.933
same,relative viability,NCI-H1563; first compound 2.53 µM,0.756
same,relative viability,NCI-H1563; first compound 8 µM,0.533
same,relative viability,NCI-H1299; first compound 0.08 µM,0.977
same,relative viability,NCI-H1299; first compound 0.253 µM,0.972
same,relative viability,NCI-H1299; first compound 0.8 µM,0.91
same,relative viability,NCI-H1299; first compound 2.53 µM,0.937
same,relative viability,NCI-H1299; first compound 8 µM,0.875
same,relative viability,A549; first compound 0.08 µM,0.912
same,relative viability,A549; first compound 0.253 µM,1.01
same,relative viability,A549; first compound 0.8 µM,0.976
same,relative viability,A549; first compound 2.53 µM,0.882
same,relative viability,A549; first compound 8 µM,0.802
Cc1cnc(-c2cnc(NCCNc3ccc(C#N)cn3)nc2-c2ccc(Cl)cc2Cl)[nH]1 + CS(=O)(=O)N1CCN(Cc2cc3nc(-c4cccc5[nH]ncc45)nc(N4CCOCC4)c3s2)CC1 [Pictilisib] (partner 1 µM),relative viability,Calu-6; first compound 0.08 µM,0.923
same,relative viability,Calu-6; first compound 0.253 µM,0.934
same,relative viability,Calu-6; first compound 0.8 µM,1.05
same,relative viability,Calu-6; first compound 2.53 µM,0.911
same,relative viability,IA-LM; first compound 0.08 µM,0.362
same,relative viability,IA-LM; first compound 0.253 µM,0.408
same,relative viability,IA-LM; first compound 2.53 µM,0.483
same,relative viability,NCI-H1703; first compound 0.08 µM,0.256
same,relative viability,NCI-H1703; first compound 0.253 µM,0.252
same,relative viability,NCI-H1703; first compound 0.8 µM,0.23
same,relative viability,NCI-H1703; first compound 2.53 µM,0.314
same,relative viability,EBC-1; first compound 0.08 µM,0.421
same,relative viability,EBC-1; first compound 0.253 µM,0.368
same,relative viability,EBC-1; first compound 0.8 µM,0.549
same,relative viability,EBC-1; first compound 2.53 µM,0.567
same,relative viability,NCI-H1563; first compound 0.08 µM,0.649
same,relative viability,NCI-H1563; first compound 0.253 µM,0.72
same,relative viability,NCI-H1563; first compound 0.8 µM,0.709
same,relative viability,NCI-H1563; first compound 2.53 µM,0.725
same,relative viability,NCI-H1299; first compound 0.08 µM,0.822
same,relative viability,NCI-H1299; first compound 0.253 µM,0.754
same,relative viability,NCI-H1299; first compound 0.8 µM,0.861
same,relative viability,NCI-H1299; first compound 2.53 µM,0.426
same,relative viability,A549; first compound 0.08 µM,0.597
same,relative viability,A549; first compound 0.253 µM,0.482
same,relative viability,A549; first compound 0.8 µM,0.764
same,relative viability,A549; first compound 2.53 µM,0.775
O=C(O)CCCCC(CCSCc1ccccc1)SCc1ccccc1 (stereo not given) [CPI-613] + Cc1nc(NC(=O)N2CCC[C@H]2C(N)=O)sc1-c1ccnc(C(C)(C)C(F)(F)F)c1 [Alpelisib] (partner 2 µM),relative viability,Calu-6; first compound 5 µM,0.997
same,relative viability,Calu-6; first compound 15.81 µM,0.876
same,relative viability,Calu-6; first compound 50 µM,0.891
same,relative viability,Calu-6; first compound 158.11 µM,0.174
same,relative viability,Calu-6; first compound 500 µM,0.0521
same,relative viability,IA-LM; first compound 5 µM,0.614
same,relative viability,IA-LM; first compound 15.81 µM,0.679
same,relative viability,IA-LM; first compound 50 µM,0.644
same,relative viability,IA-LM; first compound 158.11 µM,0.399
same,relative viability,IA-LM; first compound 500 µM,0.0122
same,relative viability,NCI-H1703; first compound 5 µM,0.381
same,relative viability,NCI-H1703; first compound 15.81 µM,0.484
same,relative viability,NCI-H1703; first compound 50 µM,0.275
same,relative viability,NCI-H1703; first compound 158.11 µM,0.208
same,relative viability,NCI-H1703; first compound 500 µM,0.0611
same,relative viability,EBC-1; first compound 5 µM,0.823
same,relative viability,EBC-1; first compound 15.81 µM,0.651
same,relative viability,EBC-1; first compound 50 µM,0.678
same,relative viability,EBC-1; first compound 158.11 µM,0.199
same,relative viability,EBC-1; first compound 500 µM,0.0384
same,relative viability,NCI-H1563; first compound 5 µM,0.958
same,relative viability,NCI-H1563; first compound 15.81 µM,0.938
same,relative viability,NCI-H1563; first compound 50 µM,0.939
same,relative viability,NCI-H1563; first compound 158.11 µM,0.796
same,relative viability,NCI-H1563; first compound 500 µM,0.113
same,relative viability,NCI-H1299; first compound 5 µM,1.02
same,relative viability,NCI-H1299; first compound 15.81 µM,1.04
same,relative viability,NCI-H1299; first compound 50 µM,1.04
same,relative viability,NCI-H1299; first compound 158.11 µM,1.09
same,relative viability,NCI-H1299; first compound 500 µM,1.08
same,relative viability,A549; first compound 5 µM,0.859
same,relative viability,A549; first compound 15.81 µM,0.675
same,relative viability,A549; first compound 50 µM,0.69
same,relative viability,A549; first compound 158.11 µM,0.384
same,relative viability,A549; first compound 500 µM,0.0243
Cc1cnc(-c2cnc(NCCNc3ccc(C#N)cn3)nc2-c2ccc(Cl)cc2Cl)[nH]1 + CS(=O)(=O)CCNCc1ccc(-c2ccc3ncnc(Nc4ccc(OCc5cccc(F)c5)c(Cl)c4)c3c2)o1 [Lapatinib] (partner 2 µM),relative viability,Calu-6; first compound 0.08 µM,1.14
same,relative viability,Calu-6; first compound 0.253 µM,0.991
same,relative viability,Calu-6; first compound 0.8 µM,1
same,relative viability,Calu-6; first compound 2.53 µM,1.03
same,relative viability,IA-LM; first compound 0.08 µM,0.985
same,relative viability,IA-LM; first compound 0.253 µM,0.864
same,relative viability,IA-LM; first compound 0.8 µM,0.679
same,relative viability,IA-LM; first compound 2.53 µM,0.685
same,relative viability,NCI-H1703; first compound 0.08 µM,1.12
same,relative viability,NCI-H1703; first compound 0.253 µM,1.02
same,relative viability,NCI-H1703; first compound 0.8 µM,1.2
same,relative viability,NCI-H1703; first compound 2.53 µM,1.28
same,relative viability,EBC-1; first compound 0.08 µM,0.253
same,relative viability,EBC-1; first compound 0.253 µM,0.201
same,relative viability,EBC-1; first compound 0.8 µM,0.215
same,relative viability,EBC-1; first compound 2.53 µM,0.248
same,relative viability,NCI-H1563; first compound 0.08 µM,1.06
same,relative viability,NCI-H1563; first compound 0.253 µM,0.997
same,relative viability,NCI-H1563; first compound 0.8 µM,0.963
same,relative viability,NCI-H1563; first compound 2.53 µM,1.01
same,relative viability,NCI-H1299; first compound 0.08 µM,0.954
same,relative viability,NCI-H1299; first compound 0.253 µM,0.983
same,relative viability,NCI-H1299; first compound 0.8 µM,0.948
same,relative viability,NCI-H1299; first compound 2.53 µM,0.862
same,relative viability,A549; first compound 0.08 µM,0.96
same,relative viability,A549; first compound 0.253 µM,0.942
same,relative viability,A549; first compound 0.8 µM,1.16
same,relative viability,A549; first compound 2.53 µM,1.14
